Experimental data taken from patent US20090253669A1, “Substituted Sulfonamide Compounds” (GRUENENTHAL GmbH, priority 2008, published 2009).

Assays:
[1] = target: T1, B1R receptor of the rat (rB1R) (Rattus norvegicus, UniProt P97583); test: FLIPR Ca2+ assay on rB1R-transfected CHO K1 cells, antagonistic action; format: cell-based; conditions: CHO-K1, 10 μM test substance; agonist Des-Arg9-bradykinin 100 nM; % of maximum achievable inhibition; read-out: rB1R [10 μM] % inhibition
T1 construct: host or cells: CHO K1 cells
T1 sequence (P97583 1-337): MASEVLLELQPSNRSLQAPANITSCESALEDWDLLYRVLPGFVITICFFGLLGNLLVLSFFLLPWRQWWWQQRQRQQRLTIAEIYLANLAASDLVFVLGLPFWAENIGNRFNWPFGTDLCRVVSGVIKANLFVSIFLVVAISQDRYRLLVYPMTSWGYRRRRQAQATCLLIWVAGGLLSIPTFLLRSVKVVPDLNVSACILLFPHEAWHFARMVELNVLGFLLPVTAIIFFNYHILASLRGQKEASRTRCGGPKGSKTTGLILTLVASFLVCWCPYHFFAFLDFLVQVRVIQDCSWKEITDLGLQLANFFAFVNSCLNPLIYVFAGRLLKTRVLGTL

[2] = target: T2, human B1R receptor (hB1R) (Homo sapiens, UniProt P46663); test: FLIPR Ca2+ assay on hB1R-transfected CHO K1 cells, antagonistic action; format: cell-based; conditions: CHO-K1, 10 μM test substance; agonist Lys-Des-Arg9-bradykinin 0.5 nM; % of maximum achievable inhibition; read-out: hB1R [10 μM] % inhibition
T2 construct: host or cells: CHO K1 cells
T2 sequence (P46663 1-353): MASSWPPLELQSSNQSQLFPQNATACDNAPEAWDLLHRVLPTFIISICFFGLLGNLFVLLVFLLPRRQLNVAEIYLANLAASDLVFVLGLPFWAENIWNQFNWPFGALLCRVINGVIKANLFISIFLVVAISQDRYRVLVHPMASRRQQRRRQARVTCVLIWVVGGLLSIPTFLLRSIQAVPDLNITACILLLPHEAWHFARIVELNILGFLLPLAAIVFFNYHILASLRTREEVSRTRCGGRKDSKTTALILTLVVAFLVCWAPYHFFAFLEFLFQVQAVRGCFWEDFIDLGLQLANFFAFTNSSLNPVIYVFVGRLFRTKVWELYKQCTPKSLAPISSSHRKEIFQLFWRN

Row | Structure (SMILES) | inhibition at 10 µM [1] | inhibition at 10 µM [2]
1 | CN1CCN(C2(CCc3ccccc3)CCC(CN(C)C(=O)COCC3CCCN3S(=O)(=O)c3c(Cl)cc(Cl)cc3Cl)CC2)CC1 (stereo not shown) [Compound 172, N-methyl-N-((4-(4-methylpiperazin-1-yl)-4-phenethylcyclohexyl)methyl)-2-((1-(2,4,6-trichlorophenylsulfonyl)pyrrolidin-2-yl)methoxy)acetamide] | 79% | 98%
2 | COc1cc(C)c(S(=O)(=O)N(C)CCOCC(=O)NC2CCC(CCc3ccccc3)(N(C)C)CC2)c(C)c1 (stereo not shown) [Compound 7, N-(4-(dimethylamino)-4-phenethylcyclohexyl)-2-(2-(4-methoxy-N,2,6-trimethylphenylsulfonamido)ethoxy)acetamide] | 100% | 103%
3 | COc1cc(C)c(S(=O)(=O)N(C)CCOCC(=O)NC2CCC(c3cccc(F)c3)(N(C)C)CC2)c(C)c1 (stereo not shown) [Compound 6, N-(4-(dimethylamino)-4-(3-fluorophenyl)cyclohexyl)-2-(2-(4-methoxy-N,2,6-trimethylphenylsulfonamido)ethoxy)acetamide] | 100% | 100%
4 | O=C(COCC1CCCN(S(=O)(=O)c2c(Cl)cc(Cl)cc2Cl)C1)NC1CCC(c2ccccc2)(N2CCCC2)CC1 (stereo not shown) [Compound 192, N-(4-phenyl-4-(pyrrolidin-1-yl)cyclohexyl)-2-((1-(2,4,6-trichlorophenylsulfonyl)piperidin-3-yl)methoxy)acetamide] | 50% | 99%
5 | COc1cc(C)c(S(=O)(=O)N2CCCC(COCC(=O)NC3CCC(c4ccccc4)(N4CCCC4)CC3)C2)c(C)c1 (stereo not shown) [Compound 187, 2-((1-(4-methoxy-2,6-dimethylphenylsulfonyl)piperidin-3-yl)methoxy)-N-(4-phenyl-4-(pyrrolidin-1-yl)cyclohexyl)acetamide] | 63% | 95%
6 | COc1cc(C)c(S(=O)(=O)N(C)CCOCC(=O)N2CCC(N)(c3ccccc3)CC2)c(C)c1 [Compound 196, N-(2-(2-(4-Amino-4-phenylpiperidin-1-yl)-2-oxoethoxy)ethyl)-4-methoxy-N,2,6-trimethylbenzenesulfonamide] | 100% | 103%
7 | CN1CCN(C2(Cc3ccccc3)CCC(CN(C)C(=O)COCC3CCCN3S(=O)(=O)c3c(Cl)cc(Cl)cc3Cl)CC2)CC1 (stereo not shown) [Compound 168, N-((4-benzyl-4-(4-methylpiperazin-1-yl)cyclohexyl)methyl)-N-methyl-2-((1-(2,4,6-trichlorophenylsulfonyl)pyrrolidin-2-yl)methoxy)acetamide] | 88% | 88%
8 | COc1cc(C)c(S(=O)(=O)N(C)CCOCC(=O)NC2CCC(c3ccccc3)(N3CCCCC3)CC2)c(C)c1 (stereo not shown) [Compound 11, 2-(2-(4-methoxy-N,2,6-trimethylphenylsulfonamido)ethoxy)-N-(4-phenyl-4-(piperidin-1-yl)cyclohexyl)acetamide] | 90% | 100%
9 | COc1cc(C)c(S(=O)(=O)N2CCC(OCC(=O)NCC3CCC(c4ccccc4)(N4CCOCC4)CC3)C2)c(C)c1 (stereo not shown) [Compound 173, 2-(1-(4-methoxy-2,6-dimethylphenylsulfonyl)pyrrolidin-3-yloxy)-N-((4-morpholino-4-phenylcyclohexyl)methyl)acetamide] | 78% | 64%
10 | COc1cc(C)c(S(=O)(=O)N(C)CCOCC(=O)N(C)CCCC2CCC(c3ccccc3)(N3CCCC3)CC2)c(C)c1 (stereo not shown) [Compound 83, 2-(2-(4-methoxy-N,2,6-trimethylphenylsulfonamido)ethoxy)-N-methyl-N-(3-(4-phenyl-4-(pyrrolidin-1-yl)cyclohexyl)propyl)acetamide] | 99% | 103%
11 | COc1cc(C)c(S(=O)(=O)N(C)CCOCC(=O)N2CCC(CCc3ccccc3)(N3CCN(C)CC3)CC2)c(C)c1 [Compound 87, 4-methoxy-N,2,6-trimethyl-N-(2-(2-(4-(4-methylpiperazin-1-yl)-4-phenethylpiperidin-1-yl)-2-oxoethoxy)ethyl)benzenesulfonamide] | 98% | 99%
12 | CN(C)C1(Cc2ccccc2)CCN(C(=O)COCC2CCc3ccccc3N2S(=O)(=O)c2ccc(Cl)c(Cl)c2)CC1 (stereo not shown) [Compound 36, 1-(4-benzyl-4-(dimethylamino)piperidin-1-yl)-2-((1-(3,4-dichlorophenylsulfonyl)-1,2,3,4-tetrahydroquinolin-2-yl)methoxy)ethanone] | 101% | 101%
13 | COc1cc(C)c(S(=O)(=O)N(C)CCOCC(=O)NC2CCC(Cc3ccccc3)(N3CCCCC3)CC2)c(C)c1 (stereo not shown) [Compound 17, N-(4-benzyl-4-(piperidin-1-yl)cyclohexyl)-2-(2-(4-methoxy-N,2,6-trimethylphenylsulfonamido)ethoxy)acetamide] | 75% | 86%
14 | COc1cc(C)c(S(=O)(=O)N2CCCCC2COCC(=O)N2CCC(c3ccccc3)(N(C)C)CC2)c(C)c1 (stereo not shown) [Compound 202, 1-(4-(dimethylamino)-4-phenylpiperidin-1-yl)-2-((1-(4-methoxy-2,6-dimethylphenylsulfonyl)piperidin-2-yl)methoxy)ethanone] | 103% | 100%
15 | COc1cc(C)c(S(=O)(=O)N(C)CCOCC(=O)N(C)CCC2CCC(c3ccccc3)(N3CCCC3)CC2)c(C)c1 (stereo not shown) [Compound 34, 2-(2-(4-methoxy-N,2,6-trimethylphenylsulfonamido)ethoxy)-N-methyl-N-(2-(4-phenyl-4-(pyrrolidin-1-yl)cyclohexyl)ethyl)acetamide] | 101% | 104%
16 | CN1CCN(C2(c3cccc(F)c3)CCN(C(=O)COCC3CCc4ccccc4N3S(=O)(=O)c3ccc4ccccc4c3)CC2)CC1 (stereo not shown) [Compound 228, 1-(4-(3-Fluorophenyl)-4-(4-methylpiperazin-1-yl)piperidin-1-yl)-2-((1-(naphthalen-2-ylsulfonyl)-1,2,3,4-tetrahydroquinolin-2-yl)methoxy)ethanone] | 101% | 100%
17 | COc1cc(C)c(S(=O)(=O)N(C)CCOCC(=O)N2CCC(c3ccncc3)(N(C)C)CC2)c(C)c1 [Compound 206, N-(2-(2-(4-(dimethylamino)-4-(pyridin-4-yl)piperidin-1-yl)-2-oxoethoxy)ethyl)-4-methoxy-N,2,6-trimethylbenzenesulfonamide] | 99% | 100%
18 | COc1cc(C)c(S(=O)(=O)N(C)CCOCC(=O)N(C)CCCC2CCC(CCc3ccccc3)(N3CCCC3)CC2)c(C)c1 (stereo not shown) [Compound 91, 2-(2-(4-methoxy-N,2,6-trimethylphenylsulfonamido)ethoxy)-N-methyl-N-(3-(4-phenethyl-4-(pyrrolidin-1-yl)cyclohexyl)propyl)acetamide] | 97% | 98%
19 | Cc1cc(S(=O)(=O)N2CCCCC2CCC(=O)N2CCC(CCc3ccccc3)(N3CCN(C)CC3)CC2)c(C)cc1Cl (stereo not shown) [Compound 122, 3-(1-(4-chloro-2,5-dimethylphenylsulfonyl)piperidin-2-yl)-1-(4-(4-methylpiperazin-1-yl)-4-phenethylpiperidin-1-yl)propan-1-one] | 66% | 105%
20 | COc1cc(C)c(S(=O)(=O)N2CCC(OCC(=O)N3CCC(c4cccc(F)c4)(N4CCN(C)CC4)CC3)C2)c(C)c1 (stereo not shown) [Compound 217, 1-(4-(3-Fluorophenyl)-4-(4-methylpiperazin-1-yl)piperidin-1-yl)-2-(1-(4-methoxy-2,6-dimethylphenylsulfonyl)pyrrolidin-3-yloxy)ethanone] | 98% | 100%
21 | COc1cc(C)c(S(=O)(=O)N2CCCC2COCC(=O)N(C)CC2CCC(Cc3ccccc3)(N3CCN(C)CC3)CC2)c(C)c1 (stereo not shown) [Compound 154, N-((4-benzyl-4-(4-methylpiperazin-1-yl)cyclohexyl)methyl)-2-((1-(4-methoxy-2,6-dimethylphenylsulfonyl)pyrrolidin-2-yl)methoxy)-N-methylacetamide] | 101% | 95%
22 | CN(C)C1(c2ccccc2)CCN(C(=O)COCC2CCc3ccccc3N2S(=O)(=O)c2ccc(Cl)c(Cl)c2)CC1 (stereo not shown) [Compound 109, 2-((1-(3,4-dichlorophenylsulfonyl)-1,2,3,4-tetrahydroquinolin-2-yl)methoxy)-1-(4-(dimethylamino)-4-phenylpiperidin-1-yl)ethanone] | 78% | 80%
23 | COc1cc(C)c(S(=O)(=O)N2CCC(OCC(=O)NC3CCC(Cc4ccccc4)(N4CCCCC4)CC3)C2)c(C)c1 (stereo not shown) [Compound 18, N-(4-benzyl-4-(piperidin-1-yl)cyclohexyl)-2-(1-(4-methoxy-2,6-dimethylphenylsulfonyl)pyrrolidin-3-yloxy)acetamide] | 74% | 68%
